Laboratory results reported in patent publication US12544395B2, “Combination compositions comprising a beta-lactamase inhibitor and uses thereof” (priority 2018, dated 2026).

What was measured:
[1] = system: KPC-expressing Enterobacteriaceae (n = 77); assay: organism not typed; format: cell-based
[2] = Metabolic stability in plasma; format: in vitro ADME, beagle dog; conditions: beagle, plasma; Dog; test conc. 3 μM
[3] = Metabolic stability in plasma; format: in vitro ADME; conditions: plasma; Human; test conc. 3 μM
[4] = biological target: T1, KPC-2 (Klebsiella pneumoniae, UniProt Q9F663); assay: Beta-lactamase enzyme inhibition (IC50); format: biochemical
T1 construct: expressed as native untagged proteins; made in house; host or cells: E. coli BL21(DE3)

[5] = Single dose plasma pharmacokinetics (fasted and non-fasted); format: in vivo, Beagle dogs; conditions: male, Beagle, dog, iv, 5 mg/kg

SMILES | Number of strains at MIC value 0.5 mg/L ([1]; KPC-expressing (n = 77)) | Number of strains at MIC value 1 mg/L ([1]; KPC-expressing (n = 77)) | Number of strains at MIC value 2 mg/L ([1]; KPC-expressing (n = 77)) | Number of strains at MIC value 4 mg/L ([1]; KPC-expressing (n = 77)) | Number of strains at MIC value 8 mg/L ([1]; KPC-expressing (n = 77)) | Number of strains at MIC value 16 mg/L ([1]; KPC-expressing (n = 77)) | Number of strains at MIC value […] ([1]; KPC-expressing (n = 77)) | Number of strains at MIC value ≤0.06 mg/L ([1]; KPC-expressing (n = 77)) | Number of strains at MIC value ≥32 mg/L ([1]; KPC-expressing (n = 77)) | MIC90 ([1]; iv) | half-life at 3 μM [2] | half-life at 3 μM [3] | IC50 [4] | AUC(0-inf) [5] | Cmax [5]
Nc1nc(/C(=C/CC(=O)O)C(=O)N[C@@H]2C(=O)N3C(C(=O)O)=CCS[C@H]23)cs1 [Ceftibuten, ceftibuten, reference compound] | 2 | 2 | 4 | 7 | 13 | 24 | 0 | 0 | 25 | ≥ 32 µg/mL | – | – | – | – | –
CCC(=O)N[C@H]1Cc2cccc(C(=O)O)c2OB1O [Compound 2, (R)-2-hydroxy-3-propionamido-3,4-dihydro-2H-benzo[e][1,2]oxaborinine-8-carboxylic acid] | – | – | – | – | – | – | – | – | – | – | > 2 h | > 2 h | 80 nM | 25500 ng·h/mL | 22400 ng/mL
